According to US9302998B2, “Aryl triazole compounds with antitumoural activity” (SIGMA-TAU RESEARCH SWITZERLAND S.A., priority 2010, dated 2016):

Experiments:
[1] = system: MeWo melanoma; assay: Sulphorodamine B test at single concentration, MeWo; assay type: cell-based; conditions: Homo sapiens, 500 nM, 72 h
Procedure, shortened: (§1)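 Cells in EMEM with 10% FBS, seeded at ~10% confluence, attached 24 h, then exposed to 500 nM compound for 72 h at 37 °C, octuplicate. TCA fixation, sulphorodamine B staining, OD at 540 nm; killing expressed as % decrease in dye binding versus control cultures.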

[2] = system: A2780 ovarian; assay: Sulphorodamine B test at single concentration, A2780; assay type: cell-based; conditions: Homo sapiens, 500 nM, 72 h
Procedure, shortened: (§2)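 Cells in RPMI 1640 with 10% FBS, seeded at about 10% confluence and allowed 24 h recovery, then treated with a single 500 nM concentration for 72 h at 37° C., in octuplicate. TCA-fixed cells were stained with sulphorodamine B, OD read at 540 nm; cell kill was derived as % decrease in staining versus controls. NB4 suspension cells were centrifuged after incubation.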

[3] = system: A431 epidermoid; assay: Sulphorodamine B test at single concentration, A431; assay type: cell-based; conditions: Homo sapiens, A-431; 500 nM, 72 h
Procedure, shortened: as §2

[4] = system: HeLa cervix uteri; assay: Sulphorodamine B test at single concentration, HeLa; assay type: cell-based; conditions: Homo sapiens, 500 nM, 72 h
Procedure, shortened: as §2

[5] = system: MiaPaCa2 pancreas; assay: Sulphorodamine B test at single concentration, MiaPaCa2; assay type: cell-based; conditions: Homo sapiens, MIA PaCa-2; 500 nM, 72 h
Procedure, shortened: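 MiaPaCa2 cells in DMEM with 10% FBS were attached for 24 h, then exposed to a single 500 nM inhibitor concentration for 72 h at 37° C, in octuplicate. Following TCA fixation, sulphorodamine B staining was read as OD at 540 nm; cell kill was the percent decrease in dye binding versus control cultures.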

[6] = system: U87MG glioblastoma; assay: Sulphorodamine B test at single concentration, U87MG; assay type: cell-based; conditions: Homo sapiens, U-87 MG; 500 nM, 72 h
Procedure, shortened: as §1

[7] = system: HCT116 colon; assay: Sulphorodamine B test at single concentration, HCT116; assay type: cell-based; conditions: Homo sapiens, HCT-116; 500 nM, 72 h
Procedure, shortened: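 HCT116 colon cells in McCoy's medium with 10% FBS were seeded at ~10% confluence, left 24 h, then exposed to a single 500 nM inhibitor concentration for 72 h at 37°C, in octuplicate. TCA-fixed cells stained with sulphorhodamine B, OD at 540 nm; percent decrease versus control cultures.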

[8] = system: MDA-MB436 triple-negative breast; assay: Sulphorodamine B test at single concentration, MDA-MB436; assay type: cell-based; conditions: Homo sapiens, MDA-MB-436; 500 nM, 72 h
Procedure, shortened: as §2

[9] = system: NB4 promyelocytic leukemia; assay: Sulphorodamine B test at single concentration, NB4; assay type: cell-based; conditions: 500 nM, 72 h, suspension cells
Procedure, shortened: as §2

[10] = target: T1, Hsp90 (Homo sapiens, UniProt P07900); assay: Fluorescence Polarization (FP) binding, GM-BODIPY displacement from Hsp90; conditions: GM-BODIPY tracer, 4° C. for 4 hours
T1 construct: purchased Stressgen SPP-776
Procedure, shortened: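 Hsp90 (125 nM) was mixed with 100 nM GM-BODIPY tracer and serially diluted compounds in HEPES-K buffer (pH 7.3, KCl, MgCl2, Na2MoO4, 0.01% NP40, fresh bovine gamma globulin and 2 mM DTT). Plates were shaken 4 h at 4 °C before FP (mP) reading. IC50 is the concentration displacing 50% of tracer, from nonlinear least-squares fits of triplicate means.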

[11] = system: A498 renal; assay: Sulphorodamine B test at single concentration, A498; assay type: cell-based; conditions: Homo sapiens, 500 nM, 72 h
Procedure, shortened: as §2

[12] = system: NCI-H460 non-small cell lung carcinoma; assay: Cytotoxicity assay, sulphorodamine B test, NCI-H460; assay type: cell-based; conditions: for IC50: Homo sapiens, NCI-H460, 72 h, sulphorodamine B
Procedure, shortened: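 NCI-H460 cells grown in RPMI 1640 with 10% FBS, seeded at ~10% confluence and left 24 h before graded compound concentrations were added for 72 h at 37 °C. TCA-fixed cells stained with 0.4% sulphorodamine B; OD 540 nm vs control cultures gave IC50 for 50% inhibition of survival.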

Row | Structure (SMILES) | inhibition at 0.5 µM [1] | inhibition at 0.5 µM [2] | inhibition at 0.5 µM [3] | inhibition at 0.5 µM [4] | inhibition at 0.5 µM [5] | inhibition at 0.5 µM [6] | inhibition at 0.5 µM [7] | inhibition at 0.5 µM [8] | inhibition at 0.5 µM [9] | IC50 [10] | inhibition at 0.5 µM [11] | cytotoxic activity against NCI-H460 NSCLC (in words) [12] | IC50 [12]
1 | CCOC(=O)c1nnn(-c2cc(Cl)c(O)cc2O)c1-c1ccc(F)cc1 [Example 32, 1-(5-chloro-2,4-dihydroxy-phenyl)-5-(4-fluoro-phenyl)-1H-[1,2,3]triazole-4-carboxylic acid ethyl ester, reference compound] | < 30% | < 30% | < 30% | < 30% | < 30% | < 30% | < 30% | < 30% | 30 to 50% | > 500 nM | < 30% | totally deprived of any interesting biological activity | > 1000 nM
2 | Oc1cc(O)c(-n2nncc2-c2ccc(F)cc2)cc1Cl [Example 33, 4-chloro-6-[5-(4-fluoro-phenyl)-[1,2,3]triazol-1-yl]-benzene-1,3-diol, reference compound] | < 30% | < 30% | < 30% | < 30% | < 30% | < 30% | < 30% | < 30% | < 30% | > 500 nM | < 30% | totally deprived of any interesting biological activity | > 1000 nM
